In patent US20160106102A1, “KNOWN AND NEW HETEROCYCLIC COMPOUNDS AS PEST CONTROL AGENTS” (BAYER CROPSCIENCE AKTIENGESELLSCHAFT, priority 2013, published 2016):

Assays:
Phaedon cochleariae = Phaedon cochleariae - spray test (PHAECO); format: in vivo; details: application rate of 500 g/ha; after 7 days; larvae of the mustard beetle on sprayed Chinese cabbage leaf discs; 100% = all larvae killed
Method: Phaedon cochleariae—Spray Test (PHAECO)
(§1) Solvent: 78.0 parts by weight of acetone • • 1.5 parts by weight of dimethylformamide
(§2) Emulsifier: alkylaryl polyglycol ether
(§3) To produce an appropriate active ingredient formulation, 1 part by weight of active ingredient is dissolved using the specified parts by weight of solvent and made up with water containing an emulsifier concentration of 1000 ppm until the desired concentration is attained. To produce further test concentrations, the preparation is diluted with emulsifier-containing water.
Discs of Chinese cabbage leaves (Brassica pekinensis) are sprayed with an active ingredient formulation of the desired concentration and, after drying, populated with larvae of the mustard beetle (Phaedon cochleariae).
After 7 days, the efficacy in % is determined. 100% means that all the beetle larvae have been killed; 0% means that no beetle larvae have been killed.

[1] = log P determination by LC-MS in the acidic range; format: physicochemical
From the text: The LC-MS determination in the acidic range is effected at pH 2.7 using 0.1% aqueous formic acid and acetonitrile (contains 0.1% formic acid) as eluents, linear gradient from 10% acetonitrile to 95% acetonitrile. Alternatively, the determination is effected in the acidic range at pH 2.3 using 0.1% aqueous phosphoric acid and acetonitrile as eluents; linear gradient from 10% acetonitrile to 95% acetonitrile.

Spodoptera frugiperda = Spodoptera frugiperda - spray test (SPODFR); format: in vivo; details: application rate of 500 g/ha; after 7 days; armyworm caterpillars on sprayed maize leaf discs; 100% = all caterpillars killed
Method: Spodoptera frugiperda—Spray Test (SPODFR)
as §1, §2, §3
Leaf discs of maize (Zea mays) are sprayed with an active ingredient formulation of the desired concentration and, after drying, populated with caterpillars of the armyworm (Spodopterafrugiperda).
After 7 days, the efficacy in % is determined. 100% means that all the caterpillars have been killed; 0% means that no caterpillars have been killed.

Myzus persicae [2] = assay: Myzus persicae - sachet test; format: in vivo; details: 100% = all animals killed
Procedure, shortened: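 Active ingredient dissolved with 2% N-methylpyrrolidone and 2% diacetone alcohol, diluted in water, then pipetted into nutrient medium. Plate sealed and paired with a plate carrying green peach aphids. Kill in % scored after the set time (100% = all dead, 0% = none dead).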

Myzus persicae [3] = assay: Myzus persicae - spray test; format: in vivo; details: application rate of 500 g/ha; after 6 days; sprayed Chinese cabbage leaf discs infested by all stages; 100% = all aphids killed
Procedure, shortened: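 Chinese cabbage leaf discs infested with all stages of green peach aphid sprayed with compound in acetone/DMF formulation with alkylaryl polyglycol ether emulsifier, diluted in emulsifier-containing water. Efficacy (% aphids killed) assessed after 6 days.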

[4] = application rate of 30 ppm in nutrient medium
[5] = application rate of 6 ppm in nutrient medium
[6] = Table 2, compounds of the formula (I-2), acidic range pH 2.7 or pH 2.3

Compound | efficacy in % (Phaedon cochleariae) | log P (acid) ([1]; LC-MS in the acidic range) | efficacy in % (Spodoptera frugiperda) | efficacy (kill in %) (Myzus persicae [2]; [4]) | efficacy in % (Myzus persicae [3]) | efficacy (kill in %) (Myzus persicae [2]; [5]) | log P (acid) [1, 6]
O=C(Nc1ccn(-c2ncccc2Cl)n1)c1cccnc1 [Compound I-1-48] | 100% | 1.25 | 100% | 100% |  |  | 
Cc1cc(NC(=O)c2cccnc2)nn1C(=O)N(C)C [Compound I-1-291] |  | 0.86 |  | 100% | 90% | 100% | 
CNC(=O)n1nc(NC(=O)c2cccnc2)cc1C [Compound I-1-292] |  | 0.97 |  | 100% | 100% | 100% | 
Cc1cc(NC(=O)c2cccnc2)nn1Cc1nccn1C [Compound I-1-293] |  | −0.21 |  | 100% | 90% | 100% | 
Cc1cc(NC(=O)c2cccnc2)nn1Cc1cscn1 [Compound I-1-295] |  | 0.95 |  | 100% | 100% | 100% | 
Cc1nnc(Cn2nc(NC(=O)c3cccnc3)cc2C)s1 [Compound I-1-296] |  | 0.83 |  | 100% | 90% | 100% | 
Cc1cc(NC(=O)c2cccnc2)nn1Cc1ccc(Cl)s1 [Compound I-1-297] |  | 2.07 |  | 100% | 90% |  | 
Cc1cc(NC(=O)c2cccnc2)nn1Cc1cc(C(=O)N(C)C)no1 [Compound I-1-298] |  | 1.09 |  | 100% | 90% | 100% | 
Cc1cc(NC(=O)c2cccnc2)nn1Cc1ncnn1-c1ccccc1 [Compound I-1-304] |  | 1.32 |  | 100% | 100% | 100% | 
Cc1cc(NC(=O)c2cccnc2)nn1C(=O)NCC[S+](C)[O-] (stereo not drawn) [Compound I-1-308] |  | 0.84 |  | 100% | 90% | 100% | 
Cc1cc(NC(=O)c2cccnc2)nn1C(=O)NCC1COCCO1 (stereo not drawn) [Compound I-1-310] |  | 1.2 |  | 100% | 100% | 100% | 
Cc1cc(NC(=O)c2cccnc2)nn1C(=O)NCC1CCCO1 (stereo not drawn) [Compound I-1-311] |  | 1.45 |  | 100% | 90% |  | 
Cc1cc(NC(=O)c2cccnc2)nn1C(=O)NC1CC1 [Compound I-1-312] |  | 1.27 |  | 100% | 90% | 100% | 
Cc1cc(NC(=O)c2cccnc2)nn1C(=O)NCC1CCCCO1 (stereo not drawn) [Compound I-1-313] |  | 1.78 |  | 100% | 90% | 100% | 
CCCNC(=O)n1nc(NC(=O)c2cccnc2)cc1C [Compound I-1-314] |  | 1.56 |  | 100% | 90% | 100% | 
CCC(C)NC(=O)n1nc(NC(=O)c2cccnc2)cc1C (stereo not drawn) [Compound I-1-317] |  | 1.83 |  | 100% | 90% | 100% | 

Compound | efficacy in % (Phaedon cochleariae) | log P (acid) ([1]; LC-MS in the acidic range) | efficacy in % (Spodoptera frugiperda) | efficacy (kill in %) (Myzus persicae [2]; [4]) | efficacy in % (Myzus persicae [3]) | efficacy (kill in %) (Myzus persicae [2]; [5]) | log P (acid) [1, 6]
CCCC(C)NC(=O)n1nc(NC(=O)c2cccnc2)cc1C (stereo not drawn) [Compound I-1-318] |  | 2.18 |  | 100% | 90% | 100% | 
Cc1cc(NC(=O)c2cccnc2)nn1C(=O)NCC(C)C [Compound I-1-320] |  | 1.89 |  | 100% | 90% | 100% | 
Cc1cc(NC(=O)c2cccnc2)nn1C(=O)NCC(C)(C)C [Compound I-1-321] |  | 2.19 |  | 100% | 100% | 100% | 
Cc1cc(NC(=O)c2cccnc2)nn1C(=O)NCc1ccccn1 [Compound I-1-329] |  | 0.88 |  | 100% | 90% | 100% | 
Cc1cc(NC(=O)c2cccnc2)nn1C(=O)NCc1cccnc1 [Compound I-1-330] |  | 0.64 |  | 100% | 90% | 100% | 
Cc1cc(NC(=O)c2cccnc2)nn1C(=O)NC(C)c1ncccn1 (stereo not drawn) [Compound I-1-333] |  | 1.29 |  | 100% | 90% | 100% | 
Cc1cc(NC(=O)c2cccnc2)nn1C(=O)NC(C)(C)c1ncccn1 [Compound I-1-335] |  | 1.67 |  | 100% | 90% | 100% | 
Cc1cc(C)nc(CNC(=O)n2nc(NC(=O)c3cccnc3)cc2C)n1 [Compound I-1-338] |  | 1.43 |  | 100% | 90% | 100% | 
Cc1cc(NC(=O)c2cccnc2)nn1Cc1nc2ccc(Cl)cc2o1 [Compound I-1-342] |  | 1.82 |  | 100% | 90% | 100% | 
Cc1cc(NC(=S)c2cccnc2)nn1Cc1ncccn1 [Compound I-1-344] |  | 1.24 |  | 100% | 100% | 100% | 
Cc1cc(NC(=O)c2cccnc2)nn1C(=O)c1ncccn1 [Compound I-1-345] |  | 1.11 |  | 100% | 90% | 100% | 
Cc1cc(N(C)C(=O)c2cccnc2)nn1Cc1ncccn1 [Compound I-1-346] | 100% | 0.63 |  | 100% | 100% | 100% | 
CCc1nn2c(=O)cc(Cn3nc(NC(=O)c4cccnc4)cc3C)nc2s1 [Compound I-1-352] |  | 1.23 |  | 100% | 90% |  | 
COc1ccc([N+](=O)[O-])cc1Cn1cnc(NC(=O)c2cccnc2)n1 [Compound I-2-4] |  |  |  | 100% | 90% |  | 1.13
COc1nc(NC(=O)c2cccnc2)nn1C [Compound I-2-16] |  |  |  | 100% | 90% |  | 0.00
